Counter-ions that a name gives are not always drawn. A value given as a limit tells only on which side of the number the result lay.

Format in all cases: cell-based
The target of assay [1] is T1, IKZF2 (Homo sapiens (Human), UniProt Q96SW2+Q9UKS7). The assay can be described thus: In vitro IKZF2 FACS Assay in Jurkat cells. As to conditions: 24 hrs; for DC50: half maximal degradation concentration; for Dmax: maximal degradation percentage. How it is done:
In vitro IKZF2 FACS Assay
DC50, A: <1 nM; B: 1-10 nM; C: 10-100 nM; D: 100-1000 nM; E: >1000 nM. Dmax, A: >80%; B: 60-80%; C: 40-60%; D: 20-40%; E: <20%.

The target in assay [2] is T1, IKZF2. The assay can be described thus: In vitro IKZF2 HiBit Assay (HEK293T Flp-in-HiBiT cells). As to conditions: HEK293T Flp-in-HiBiT cells, 6 hrs incubation; for DC50: read-out: IKZF2 HiBit DC50; for Dmax: HEK-293T, read-out: IKZF2 HiBit Dmax (%). The essentials:
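HEK293T Flp-in cells carrying an endogenous N-terminal HiBiT tag on IKZF2 were exposed to compound for 6 h at 0.1% DMSO. The dilution series was 11 doses at 3-fold, diluted from 1 mM. Nano-Glo HiBiT lytic luminescence, normalized to DMSO, gave DC50 for 50% degradation and Dmax across the concentration range, both reported in letter bins.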
In general terms: HiBiT is a short tag that completes a luciferase, so light tracks the accessible tagged protein.

The target in a further assay is IKZF1 (Homo sapiens (Human), UniProt Q13422+Q96SW2). The experiment in a line: In vitro IKZF1 HiBit Assay (HEK293T Flp-in-HiBiT-IKZF1 stable cell line). As to conditions: HEK293T Flp-in-HiBiT-IKZF1 stable cell line, 6 hrs incubation; for DC50: read-out: IKZF1 HiBit DC50; for Dmax: HEK-293T, read-out: IKZF1 HiBit Dmax (%). The essentials:
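HEK293T Flp-in cells carrying N-terminal HiBiT-tagged IKZF1 were exposed to compound (0.1% DMSO) for 6 h at 3000 cells/well. HiBiT luminescence was read after lytic LgBiT detection. DC50 and Dmax were taken from DMSO-normalized dose-response curves.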

Sequence of IKZF1 (Q13422 whole entry): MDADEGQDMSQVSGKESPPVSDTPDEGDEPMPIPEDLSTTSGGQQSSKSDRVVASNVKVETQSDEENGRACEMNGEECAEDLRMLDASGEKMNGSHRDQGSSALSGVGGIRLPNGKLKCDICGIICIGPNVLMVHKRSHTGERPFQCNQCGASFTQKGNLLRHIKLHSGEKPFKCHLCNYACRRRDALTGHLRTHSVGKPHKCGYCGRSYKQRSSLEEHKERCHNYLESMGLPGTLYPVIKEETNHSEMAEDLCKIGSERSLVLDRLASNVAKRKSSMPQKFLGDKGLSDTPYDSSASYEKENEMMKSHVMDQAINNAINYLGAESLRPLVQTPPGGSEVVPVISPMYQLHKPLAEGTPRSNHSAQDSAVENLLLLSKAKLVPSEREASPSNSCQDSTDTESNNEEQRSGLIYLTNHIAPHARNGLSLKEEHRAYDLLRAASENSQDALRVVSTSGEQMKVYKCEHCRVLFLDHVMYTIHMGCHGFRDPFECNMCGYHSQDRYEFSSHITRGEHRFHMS
Sequence of IKZF1 (Q96SW2 whole entry): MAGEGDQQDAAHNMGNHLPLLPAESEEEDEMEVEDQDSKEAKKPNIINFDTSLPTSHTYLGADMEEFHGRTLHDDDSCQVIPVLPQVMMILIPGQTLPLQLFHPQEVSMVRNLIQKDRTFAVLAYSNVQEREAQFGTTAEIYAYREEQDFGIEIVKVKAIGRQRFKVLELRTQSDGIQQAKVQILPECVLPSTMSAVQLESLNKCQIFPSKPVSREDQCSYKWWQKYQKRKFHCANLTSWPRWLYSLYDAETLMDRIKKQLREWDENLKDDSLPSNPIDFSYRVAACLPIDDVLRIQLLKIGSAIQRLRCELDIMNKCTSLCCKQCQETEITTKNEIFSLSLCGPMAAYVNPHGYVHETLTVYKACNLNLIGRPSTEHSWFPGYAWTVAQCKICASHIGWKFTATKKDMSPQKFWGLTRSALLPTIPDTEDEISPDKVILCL
Sequence of IKZF1 (Q16531 2-1140 partner): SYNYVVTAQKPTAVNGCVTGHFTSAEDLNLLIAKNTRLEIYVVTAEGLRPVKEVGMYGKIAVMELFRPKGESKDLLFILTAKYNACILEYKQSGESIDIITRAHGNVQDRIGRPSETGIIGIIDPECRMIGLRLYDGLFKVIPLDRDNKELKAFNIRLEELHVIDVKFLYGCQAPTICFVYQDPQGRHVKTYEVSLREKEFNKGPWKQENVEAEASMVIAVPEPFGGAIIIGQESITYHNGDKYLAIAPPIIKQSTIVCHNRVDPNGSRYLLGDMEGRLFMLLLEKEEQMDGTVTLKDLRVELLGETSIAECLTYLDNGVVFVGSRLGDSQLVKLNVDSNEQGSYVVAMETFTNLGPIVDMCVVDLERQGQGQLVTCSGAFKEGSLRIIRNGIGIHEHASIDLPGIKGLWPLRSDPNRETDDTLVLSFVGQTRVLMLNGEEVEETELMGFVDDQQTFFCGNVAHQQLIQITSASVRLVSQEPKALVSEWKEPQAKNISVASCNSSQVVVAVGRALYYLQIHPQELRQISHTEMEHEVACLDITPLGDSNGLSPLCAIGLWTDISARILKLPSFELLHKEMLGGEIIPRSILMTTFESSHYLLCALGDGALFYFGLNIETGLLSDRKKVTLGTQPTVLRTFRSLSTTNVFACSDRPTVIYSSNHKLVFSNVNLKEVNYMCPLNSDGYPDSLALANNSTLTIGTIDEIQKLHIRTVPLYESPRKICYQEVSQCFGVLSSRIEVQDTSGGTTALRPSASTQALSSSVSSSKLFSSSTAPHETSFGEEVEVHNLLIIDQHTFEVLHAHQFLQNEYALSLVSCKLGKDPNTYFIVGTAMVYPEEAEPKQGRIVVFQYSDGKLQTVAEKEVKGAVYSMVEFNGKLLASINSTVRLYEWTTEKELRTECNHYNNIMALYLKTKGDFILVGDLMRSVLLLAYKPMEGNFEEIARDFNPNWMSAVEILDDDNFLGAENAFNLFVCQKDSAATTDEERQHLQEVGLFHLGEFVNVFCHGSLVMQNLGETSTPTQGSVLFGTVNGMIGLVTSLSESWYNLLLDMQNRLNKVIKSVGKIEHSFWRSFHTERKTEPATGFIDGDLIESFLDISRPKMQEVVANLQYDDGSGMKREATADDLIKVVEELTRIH
T1 sequence (Q9UKS7 whole entry): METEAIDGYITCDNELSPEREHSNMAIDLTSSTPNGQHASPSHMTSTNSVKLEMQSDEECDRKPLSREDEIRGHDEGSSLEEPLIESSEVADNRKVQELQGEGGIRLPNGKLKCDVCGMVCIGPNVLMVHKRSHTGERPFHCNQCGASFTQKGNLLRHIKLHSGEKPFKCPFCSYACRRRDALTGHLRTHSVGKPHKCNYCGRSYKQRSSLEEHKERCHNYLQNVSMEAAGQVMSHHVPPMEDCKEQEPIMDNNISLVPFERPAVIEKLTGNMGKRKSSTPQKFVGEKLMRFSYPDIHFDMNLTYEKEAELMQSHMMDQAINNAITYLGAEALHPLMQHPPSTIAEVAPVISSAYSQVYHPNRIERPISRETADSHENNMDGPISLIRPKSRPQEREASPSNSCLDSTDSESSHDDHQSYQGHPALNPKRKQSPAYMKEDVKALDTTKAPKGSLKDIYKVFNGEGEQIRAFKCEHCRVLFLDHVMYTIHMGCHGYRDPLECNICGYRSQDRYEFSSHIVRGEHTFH
T1 sequence (Q96SW2 whole entry): as the sequence (Q96SW2 whole entry) above
T1 sequence (Q16531 2-1140 partner): as the sequence (Q16531 2-1140 partner) above

Take `CN1CC(n2ccc3c(CN4CCCC4)cc(-c4ccc5c(c4F)CN(C4CCC(=O)NC4=O)C5=O)nc32)C1` (stereo not drawn) [Example 260, 3-(4-fluoro-5-(1-(1-methylazetidin-3-yl)-4-(pyrrolidin-1-ylmethyl)-1H-pyrrolo[2,3-b]pyridin-6-yl)-1-oxoisoindolin-2-yl) piperidine-2,6-dione]: the DC50 on IKZF2 [1] is 1 to 10 nM; at IKZF2 [2] it was 1 to 10 nM; at IKZF1, 10 to 100 nM. Moreover, the values for the Dmax on IKZF2 [1], at IKZF2 [2] and at IKZF1 were over 80%, over 80% and 60 to 80%, respectively.
On to `CN1CC(n2ncc3c(CN4CCCC4)cc(-c4ccc5c(c4)CN(C4CCC(=O)NC4=O)C5=O)nc32)C1` (stereo not drawn) [Example 261, 3-(5-(1-(1-methylazetidin-3-yl)-4-(pyrrolidin-1-ylmethyl)-1H-pyrazolo[3,4-b]pyridin-6-yl)-1-oxoisoindolin-2-yl) piperidine-2,6-dione], for which the figures for the DC50 at IKZF2 [1], on IKZF2 [2] and on IKZF1 were 1 to 10 nM, 1 to 10 nM and 10 to 100 nM, respectively. In addition, the Dmax was over 80% at IKZF2 [1], over 80% on IKZF2 [2] and 60 to 80% on IKZF1.
For `O=C1CCC(N2Cc3cc(-c4cc(CN5CCCCC56CC6)c5ccn(C6COC6)c5n4)ccc3C2=O)C(=O)N1` (stereo not drawn) [Example 264, 3-(5-(4-((4-azaspiro[2.5]octan-4-yl)methyl)-1-(oxetan-3-yl)-1H-pyrrolo[2,3-b]pyridin-6-yl)-1-oxoisoindolin-2-yl) piperidine-2,6-dione], the DC50 on IKZF2 [1] is 10 to 100 nM; on IKZF2 [2], 1 to 10 nM; on IKZF1, over 10000 nM. The Dmax on IKZF2 [1] was 40 to 60%; at IKZF2 [2], 60 to 80%; at IKZF1, under 20%.
For `Cn1ccc(-n2ccc3c(CN4CCCC4)cc(-c4ccc5c(c4)CN([C@H]4CCC(=O)NC4=O)C5=O)nc32)n1` [Example 265, (S)-3-(5-(1-(1-methyl-1H-pyrazol-3-yl)-4-(pyrrolidin-1-ylmethyl)-1H-pyrrolo[2,3-b]pyridin-6-yl)-1-oxoisoindolin-2-yl) piperidine-2,6-dione], the DC50 is 1 to 10 nM at IKZF2 [1], 1 to 10 nM at IKZF2 [2] and over 10000 nM at IKZF1. Also, the Dmax at IKZF2 [1] was 60 to 80%; at IKZF2 [2], over 80%; at IKZF1 it was under 20%.
Take `COC1CCN(Cc2cc(-c3ccc4c(c3F)CN(C3CCC(=O)NC3=O)C4=O)nc3c2ccn3C2CS(=O)(=O)C2)CC1` (stereo not drawn) [Example 266, 3-(5-(1-(1,1-dioxidothietan-3-yl)-4-((4-methoxypiperidin-1-yl)methyl)-1H-pyrrolo[2,3-b]pyridin-6-yl)-4-fluoro-1-oxoisoindolin-2-yl) piperidine-2,6-dione formate]: the DC50 on IKZF2 [1] is 1 to 10 nM; at IKZF2 [2], 1 to 10 nM; at IKZF1, 10 to 100 nM. Besides, the Dmax on IKZF2 [1] is over 80%; at IKZF2 [2] it was over 80%; on IKZF1 it was 40 to 60%.
For `O=C1CCC(N2Cc3c(ccc(-c4cc(CN5CCC(F)CC5)c5ccn(C6CS(=O)(=O)C6)c5n4)c3F)C2=O)C(=O)N1` (stereo not drawn) [Example 268, 3-(5-(1-(1,1-dioxidothietan-3-yl)-4-((4-fluoropiperidin-1-yl)methyl)-1H-pyrrolo[2,3-b]pyridin-6-yl)-4-fluoro-1-oxoisoindolin-2-yl) piperidine-2,6-dione], the DC50 at IKZF2 [1] was 1 to 10 nM; on IKZF2 [2], under 1 nM; on IKZF1 it was 10 to 100 nM. For the same compound, the figures for the Dmax on IKZF2 [1], at IKZF2 [2] and on IKZF1 were over 80%, over 80% and 40 to 60%, respectively.
`O=C1CCC(N2Cc3c(ccc(-c4cc(CN5CC6COCC6C5)c5ccn(C6CS(=O)(=O)C6)c5n4)c3F)C2=O)C(=O)N1` (stereo not drawn) [Example 269, 3-(5-(1-(1,1-dioxidothietan-3-yl)-4-((tetrahydro-1H-furo[3,4-c]pyrrol-5 (3H)-yl)methyl)-1H-pyrrolo[2,3-b]pyridin-6-yl)-4-fluoro-1-oxoisoindolin-2-yl) piperidine-2,6-dione]: the results for the DC50 at IKZF2 [1], at IKZF2 [2] and at IKZF1 were 1 to 10 nM, 1 to 10 nM and 10 to 100 nM, respectively. Further, the results for the Dmax on IKZF2 [1], on IKZF2 [2] and on IKZF1 were over 80%, over 80% and 20 to 40%, respectively.
For the compound `O=C1CCC(N2Cc3c(ccc(-c4nc5c(ccn5C5COC5)c(CN5CCCC5)c4Cl)c3F)C2=O)C(=O)N1` (stereo not drawn) [Example 270, 3-(5-(5-chloro-1-(oxetan-3-yl)-4-(pyrrolidin-1-ylmethyl)-1H-pyrrolo[2,3-b]pyridin-6-yl)-4-fluoro-1-oxoisoindolin-2-yl) piperidine-2,6-dione], the DC50 at IKZF2 [1] was 1 to 10 nM; at IKZF2 [2], under 1 nM; at IKZF1, over 10000 nM. The results for the Dmax on IKZF2 [1], at IKZF2 [2] and at IKZF1 were over 80%, over 80% and under 20%, respectively.
In the case of `O=C1CCC(N2Cc3c(ccc(-c4cc(CN5CCC6(CC5)COC6)c5ccn(C6CS(=O)(=O)C6)c5n4)c3F)C2=O)C(=O)N1` (stereo not drawn) [Example 272, 3-(5-(4-((2-oxa-7-azaspiro[3.5]nonan-7-yl)methyl)-1-(1,1-dioxidothietan-3-yl)-1H-pyrrolo[2,3-b]pyridin-6-yl)-4-fluoro-1-oxoisoindolin-2-yl) piperidine-2,6-dione], the DC50 on IKZF2 [1] fell in the range of 1 to 10 nM; on IKZF2 [2], 1 to 10 nM; at IKZF1, 10 to 100 nM. Moreover, the Dmax is over 80% at IKZF2 [1], over 80% at IKZF2 [2] and 40 to 60% on IKZF1.
For `O=C1CCC(N2Cc3cc(-c4cc(CN5CCCC5)c5ccn(C6CC(F)(F)C6)c5n4)ccc3C2=O)C(=O)N1` (stereo not drawn) [Example 274, 3-(5-(1-(3,3-difluorocyclobutyl)-4-(pyrrolidin-1-ylmethyl)-1H-pyrrolo[2,3-b]pyridin-6-yl)-1-oxoisoindolin-2-yl) piperidine-2,6-dione], the DC50 at IKZF2 [1] was 1 to 10 nM; at IKZF2 [2], under 1 nM; at IKZF1, 1000 to 10000 nM. In addition, the Dmax at IKZF2 [1] was 60 to 80%; at IKZF2 [2], over 80%; on IKZF1, 20 to 40%.
`Cc1cc2c(CN3CCCC3)cc(-c3ccc4c(c3)CN(C3CCC(=O)NC3=O)C4=O)nc2n1C1COC1` (stereo not drawn) [Example 275, 3-(5-(2-methyl-1-(oxetan-3-yl)-4-(pyrrolidin-1-ylmethyl)-1H-pyrrolo[2,3-b]pyridin-6-yl)-1-oxoisoindolin-2-yl) piperidine-2,6-dione]: the DC50 at IKZF2 [1] was 10 to 100 nM; at IKZF2 [2], 1 to 10 nM; at IKZF1, over 10000 nM. Further, the Dmax at IKZF2 [1] is 60 to 80%; at IKZF2 [2], 60 to 80%; on IKZF1 it was under 20%.
On to `CC1c2cc(-c3cc(CN4CCCC4)c4ccn(C5COC5)c4n3)ccc2C(=O)N1C1CCC(=O)NC1=O` (stereo not drawn) [Example 276, 3-(3-methyl-5-(1-(oxetan-3-yl)-4-(pyrrolidin-1-ylmethyl)-1H-pyrrolo[2,3-b]pyridin-6-yl)-1-oxoisoindolin-2-yl) piperidine-2,6-dione], for which the DC50 is 1 to 10 nM on IKZF2 [1], 1 to 10 nM on IKZF2 [2] and over 10000 nM at IKZF1. Besides, the Dmax was over 80% on IKZF2 [1], over 80% on IKZF2 [2] and under 20% at IKZF1.
As for `Cn1ccc2c(CN3CCCC3)c(Cl)c(-c3ccc4c(c3F)CN(C3CCC(=O)NC3=O)C4=O)nc21` (stereo not drawn) [Example 277, 3-(5-(5-chloro-1-methyl-4-(pyrrolidin-1-ylmethyl)-1H-pyrrolo[2,3-b]pyridin-6-yl)-4-fluoro-1-oxoisoindolin-2-yl) piperidine-2,6-dione], the DC50 is 1 to 10 nM at IKZF2 [1], under 1 nM at IKZF2 [2] and over 10000 nM on IKZF1. For the same compound, the Dmax was over 80% on IKZF2 [1], over 80% at IKZF2 [2] and under 20% at IKZF1.
As to `CO[C@H]1C[C@H](Oc2ccnc3c(CN4CCCC4)cc(-c4ccc5c(c4)CN(C4CCC(=O)NC4=O)C5=O)nc23)C1` (stereo partly drawn) [Example 280, 3-(5-(8-((1r,3r)-3-methoxycyclobutoxy)-4-(pyrrolidin-1-ylmethyl)-1,5-naphthyridin-2-yl)-1-oxoisoindolin-2-yl) piperidine-2,6-dione], the values for the DC50 on IKZF2 [1], at IKZF2 [2] and on IKZF1 were 10 to 100 nM, 10 to 100 nM and over 10000 nM, respectively. In addition, the values for the Dmax on IKZF2 [1], on IKZF2 [2] and on IKZF1 were 60 to 80%, 60 to 80% and under 20%, respectively.
Turning to `CC(C)Nc1n[nH]c2c(CN3CCC(F)CC3)cc(-c3ccc4c(c3F)CN(C3CCC(=O)NC3=O)C4=O)nc12` (stereo not drawn) [Example 282, 3-(4-fluoro-5-(7-((4-fluoropiperidin-1-yl)methyl)-3-(isopropylamino)-1H-pyrazolo[4,3-b]pyridin-5-yl)-1-oxoisoindolin-2-yl) piperidine-2,6-dione], the DC50 is 10 to 100 nM on IKZF2 [1], 1 to 10 nM at IKZF2 [2] and 1000 to 10000 nM on IKZF1. In addition, the Dmax is over 80% at IKZF2 [1], over 80% on IKZF2 [2] and 20 to 40% on IKZF1.
